Blank lines part the entries; values can stand above or below the compound they belong to.
Legend:
TYK2_C838 = TYK2_C838 (Homo sapiens, UniProt P29597); assay: Targeted MS-ABPP target engagement (TE50) in human cell lysates; type: binding; conditions: read-out: target engagement value (TE50), TYK2_C838, 1 h, in vitro
[1] = test system: IFNα-stimulated STAT1 phosphorylation; assay: HTRF phospho-STAT1 assay in human PBMCs; type: cell-based; conditions: compound 2 h, IFNα 100 ng/mL 30 min
JAK1_C817 = JAK1_C817 (Homo sapiens, UniProt P23458); assay: Targeted MS-ABPP target engagement (TE50) in human cell lysates; type: binding
Sequence of JAK1_C817 (P23458 whole entry): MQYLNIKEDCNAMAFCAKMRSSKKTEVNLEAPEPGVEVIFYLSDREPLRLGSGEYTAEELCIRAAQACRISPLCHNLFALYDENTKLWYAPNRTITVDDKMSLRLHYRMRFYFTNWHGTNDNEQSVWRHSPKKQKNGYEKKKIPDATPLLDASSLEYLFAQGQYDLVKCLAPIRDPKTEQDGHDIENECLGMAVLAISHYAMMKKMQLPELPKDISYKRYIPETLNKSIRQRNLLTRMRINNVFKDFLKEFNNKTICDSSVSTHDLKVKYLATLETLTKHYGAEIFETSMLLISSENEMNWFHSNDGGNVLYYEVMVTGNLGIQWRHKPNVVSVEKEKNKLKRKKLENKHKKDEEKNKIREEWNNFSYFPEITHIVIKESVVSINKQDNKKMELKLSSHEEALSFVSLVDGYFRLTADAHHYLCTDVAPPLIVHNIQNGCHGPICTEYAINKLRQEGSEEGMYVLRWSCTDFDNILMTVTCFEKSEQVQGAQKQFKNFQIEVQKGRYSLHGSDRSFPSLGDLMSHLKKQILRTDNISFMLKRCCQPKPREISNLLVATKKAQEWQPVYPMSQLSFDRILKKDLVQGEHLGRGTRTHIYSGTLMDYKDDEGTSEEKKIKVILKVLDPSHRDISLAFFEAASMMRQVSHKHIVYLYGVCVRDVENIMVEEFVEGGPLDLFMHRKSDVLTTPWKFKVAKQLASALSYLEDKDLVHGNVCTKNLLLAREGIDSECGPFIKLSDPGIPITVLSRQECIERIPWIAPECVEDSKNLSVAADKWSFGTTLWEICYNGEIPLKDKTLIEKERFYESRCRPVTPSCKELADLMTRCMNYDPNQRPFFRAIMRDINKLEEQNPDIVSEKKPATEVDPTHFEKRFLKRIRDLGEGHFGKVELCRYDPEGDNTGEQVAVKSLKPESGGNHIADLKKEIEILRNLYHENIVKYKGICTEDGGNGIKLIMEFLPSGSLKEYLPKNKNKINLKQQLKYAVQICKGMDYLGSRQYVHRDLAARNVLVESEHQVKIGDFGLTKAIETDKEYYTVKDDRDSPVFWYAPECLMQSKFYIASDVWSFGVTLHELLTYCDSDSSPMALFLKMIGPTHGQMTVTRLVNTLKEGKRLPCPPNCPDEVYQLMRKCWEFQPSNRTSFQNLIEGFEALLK

TYK2 (C838) = conditions: human T cells in situ, 50 µM, 1 h; cited from earlier work
JAK1 (C817) = conditions: human T cells in situ, 50 µM, 1 h; cited from earlier work
[2] = molecular target: recombinant TYK2 (WT, C838A) (Homo sapiens, UniProt P29597, C838A); assay: Gel-based ABPP in 22Rv1 cells; type: binding; conditions: 0.1 μM, 2 h, in situ
Sequence of recombinant TYK2 (WT, C838A) (Homo sapiens, UniProt P29597, C838A) (P29597 whole entry C838A): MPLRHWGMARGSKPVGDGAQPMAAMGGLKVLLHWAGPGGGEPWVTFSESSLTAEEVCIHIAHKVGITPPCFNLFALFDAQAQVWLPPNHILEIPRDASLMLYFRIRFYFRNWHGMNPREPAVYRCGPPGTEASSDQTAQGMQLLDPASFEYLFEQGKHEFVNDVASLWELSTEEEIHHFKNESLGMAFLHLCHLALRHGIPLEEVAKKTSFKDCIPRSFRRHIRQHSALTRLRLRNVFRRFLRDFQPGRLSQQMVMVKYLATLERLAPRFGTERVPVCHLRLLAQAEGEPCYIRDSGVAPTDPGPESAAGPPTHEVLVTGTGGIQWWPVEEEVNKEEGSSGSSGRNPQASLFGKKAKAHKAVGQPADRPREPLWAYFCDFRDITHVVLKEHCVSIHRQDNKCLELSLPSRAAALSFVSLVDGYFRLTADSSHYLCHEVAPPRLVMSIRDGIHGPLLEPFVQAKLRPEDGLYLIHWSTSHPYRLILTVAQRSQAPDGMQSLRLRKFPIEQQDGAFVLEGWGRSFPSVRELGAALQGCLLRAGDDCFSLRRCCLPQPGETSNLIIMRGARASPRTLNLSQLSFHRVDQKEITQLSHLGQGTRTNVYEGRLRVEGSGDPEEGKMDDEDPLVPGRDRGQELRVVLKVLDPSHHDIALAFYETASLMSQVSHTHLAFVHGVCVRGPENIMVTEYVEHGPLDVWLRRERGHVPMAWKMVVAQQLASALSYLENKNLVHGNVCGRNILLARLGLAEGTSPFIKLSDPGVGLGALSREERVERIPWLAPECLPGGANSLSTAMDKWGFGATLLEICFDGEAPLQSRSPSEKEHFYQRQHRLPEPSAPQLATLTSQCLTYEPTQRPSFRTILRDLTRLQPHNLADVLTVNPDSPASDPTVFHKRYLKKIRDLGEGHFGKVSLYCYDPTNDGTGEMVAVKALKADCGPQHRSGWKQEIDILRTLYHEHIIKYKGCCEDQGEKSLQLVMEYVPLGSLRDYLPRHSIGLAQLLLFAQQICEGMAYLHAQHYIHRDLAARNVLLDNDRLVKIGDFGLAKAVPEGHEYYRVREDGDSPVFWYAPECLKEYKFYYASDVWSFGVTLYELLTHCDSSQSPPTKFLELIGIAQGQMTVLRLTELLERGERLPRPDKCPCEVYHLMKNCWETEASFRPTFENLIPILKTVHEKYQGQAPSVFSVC

[3] = molecular target: recombinant TYK2 (WT, C838A) (Homo sapiens, UniProt P29597); assay: Gel-based ABPP in 22Rv1 cells; type: binding; conditions: 0.1 μM, 2 h, in situ
Sequence of recombinant TYK2 (WT, C838A) (Homo sapiens, UniProt P29597) (P29597 whole entry C838A): as above

[4] = test system: recombinant JAK1 (WT, C810A, C817A); assay: Gel-based ABPP in 22Rv1 cells; type: binding, human; conditions: 0.1 μM, 2 h, in situ
[5] = test system: IFNα-stimulated STAT1 phosphorylation; assay: Ex vivo phospho-STAT assay, splenocytes of treated mice; type: in vivo, mouse; conditions: splenocytes of mice given 25 mg/kg s.c., 2 × 4 h
[6] = test system: IL-6-stimulated STAT3 phosphorylation; assay: Phospho-STAT western blot in human PBMCs; type: cell-based; conditions: compound 2 h, IL-6 25 ng/mL 30 min
[7] = test system: GM-CSF stimulated STAT5 phosphorylation (JAK2-dependent); assay: Phospho-STAT western blot in human PBMCs; type: cell-based; conditions: compound 2 h, GM-CSF 15 min
[8] = test system: IFNα-stimulated STAT1 phosphorylation; assay: Phospho-STAT western blot in human PBMCs; type: cell-based; conditions: compound 2 h, IFNα 100 ng/mL 30 min
[9] = test system: IL-2-dependent STAT5 phosphorylation; assay: Phospho-STAT western blot in mouse splenocytes; type: cell-based; conditions: 0.01–0.1 µM
GM-CSF-STAT5 signaling [10] = assay: Phospho-STAT western blot in mouse splenocytes; type: cell-based
[11] = test system: IFNα-dependent STAT1 phosphorylation; assay: Phospho-STAT western blot in mouse splenocytes; type: cell-based; conditions: 0.01–0.1 µM
IL-12-STAT4 signaling = assay: Phospho-STAT western blot in mouse splenocytes; type: cell-based
GM-CSF-STAT5 signaling [12] = assay: Ex vivo phospho-STAT assay, splenocytes of treated mice; type: in vivo, mouse; conditions: splenocytes of mice given 25 mg/kg s.c., 2 × 4 h
[13] = In vivo pharmacokinetic analysis; conditions: male, CD-1 (ICR), mouse, plasma
[14] = test system: IL-2-stimulated STAT5 phosphorylation; assay: Phospho-STAT western blot in human PBMCs; type: cell-based; conditions: compound 2 h, IL-2 20 U/mL 15 min
[15] = test system: IL-12-STAT4 signaling (TYK2/JAK2-dependent); assay: Phospho-STAT western blot in human PBMC-derived T-blasts; type: cell-based; conditions: compound 2 h, IL-12 12.5 ng/mL 15 min
IL-6-STAT3 signaling = assay: Ex vivo phospho-STAT assay, splenocytes of treated mice; type: in vivo, mouse; conditions: splenocytes of mice given 25 mg/kg s.c., 2 × 4 h
JAK1_C816 = JAK1_C816 (Mus musculus, UniProt P52332); assay: In vivo target engagement in spleen by targeted MS-ABPP; conditions: mice, s.c. 25 or 50 mg/kg, two doses over an 8 h period
Sequence of JAK1_C816 (P52332 whole entry): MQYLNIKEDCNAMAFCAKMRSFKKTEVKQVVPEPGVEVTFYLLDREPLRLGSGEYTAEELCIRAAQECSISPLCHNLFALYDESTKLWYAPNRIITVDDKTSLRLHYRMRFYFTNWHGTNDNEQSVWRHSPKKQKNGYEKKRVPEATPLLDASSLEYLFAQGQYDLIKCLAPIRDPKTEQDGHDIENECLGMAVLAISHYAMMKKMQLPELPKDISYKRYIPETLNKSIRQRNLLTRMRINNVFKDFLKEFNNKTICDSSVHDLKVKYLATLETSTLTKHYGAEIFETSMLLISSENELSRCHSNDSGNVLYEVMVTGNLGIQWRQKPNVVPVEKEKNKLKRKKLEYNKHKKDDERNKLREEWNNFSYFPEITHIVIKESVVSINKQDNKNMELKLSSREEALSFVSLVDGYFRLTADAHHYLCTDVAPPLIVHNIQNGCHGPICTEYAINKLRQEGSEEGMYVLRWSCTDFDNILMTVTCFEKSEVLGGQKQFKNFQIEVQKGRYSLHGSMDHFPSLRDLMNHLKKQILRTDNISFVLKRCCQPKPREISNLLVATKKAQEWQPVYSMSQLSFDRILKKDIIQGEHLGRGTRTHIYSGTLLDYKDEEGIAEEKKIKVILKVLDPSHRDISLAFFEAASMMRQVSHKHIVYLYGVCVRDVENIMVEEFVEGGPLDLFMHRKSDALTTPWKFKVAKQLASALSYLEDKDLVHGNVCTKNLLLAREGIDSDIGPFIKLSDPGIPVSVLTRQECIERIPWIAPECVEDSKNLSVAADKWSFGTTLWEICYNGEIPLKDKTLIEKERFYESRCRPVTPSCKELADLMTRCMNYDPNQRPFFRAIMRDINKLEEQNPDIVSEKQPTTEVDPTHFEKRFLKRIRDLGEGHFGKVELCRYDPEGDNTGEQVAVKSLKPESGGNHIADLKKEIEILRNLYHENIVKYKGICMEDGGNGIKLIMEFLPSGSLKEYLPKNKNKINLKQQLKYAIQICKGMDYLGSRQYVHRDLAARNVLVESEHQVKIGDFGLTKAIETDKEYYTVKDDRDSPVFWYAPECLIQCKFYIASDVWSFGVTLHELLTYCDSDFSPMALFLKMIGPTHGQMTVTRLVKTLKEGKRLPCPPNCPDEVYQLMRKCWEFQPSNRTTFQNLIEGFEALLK

[16] = test system: IL-2-dependent STAT5 phosphorylation; assay: Ex vivo phospho-STAT assay, splenocytes of treated mice; type: in vivo, mouse; conditions: splenocytes of mice given 25 mg/kg s.c., 2 × 4 h
[17] = test system: αCD3/αCD28-stimulated primary human T cells (CD25, CD69); assay: T-cell activation analysis by flow cytometry; type: cell-based; conditions: αCD3/αCD28 co-stimulation, 24 h
[18] = test system: IL-6-stimulated STAT3 phosphorylation; assay: Phospho-STAT western blot in mouse splenocytes; type: cell-based; conditions: WT mouse splenocytes
[19] = test system: IFNγ-stimulated STAT1 phosphorylation; assay: Phospho-STAT western blot in 22Rv1 cells expressing JAK1 variants; type: cell-based, human; conditions: WT-JAK1 transfected 22Rv1 cells; 1 μM, 2 h
[20] = test system: IFNα-stimulated STAT1 phosphorylation; assay: as above; type: cell-based, human; conditions: cells expressing WT-, C810A-, or C817A-JAK1; 2 µM, 2 h
primary human T cells = assay: T-cell viability (Near IR Live/Dead stain); type: cell-based; conditions: 24 h
[21] = test system: IFNα-stimulated STAT1 phosphorylation (TYK2-dependent); assay: Phospho-STAT western blot in 22Rv1 cells expressing TYK2 variants; type: cell-based, human; conditions: 2 h
[22] = molecular target: JAK1 trans-phosphorylation (Homo sapiens, UniProt P23458); assay: Trans-phosphorylation assay in 22Rv1 cells; type: cell-based; conditions: cells expressing active WT-JAK1-FLAG; 2 µM, 2 h
Sequence of JAK1 trans-phosphorylation (P23458 whole entry): as the sequence (P23458 whole entry) above

[23] = molecular target: JAK1 phosphorylation (pJAK1; Y1034/Y1035) (Homo sapiens, UniProt P23458); assay: JAK1 phosphorylation western blot in 22Rv1 cells expressing JAK1 variants; type: cell-based; conditions: 22Rv1 cells transfected with WT or C817A-JAK1; independent of JAK1_C817
Sequence of JAK1 phosphorylation (pJAK1; Y1034/Y1035) (P23458 whole entry): as above

Sequence of TYK2_C838 (P29597 whole entry): as the sequence (P29597 whole entry C838A) above, with A838C counted along it

Compound: CC#CC(=O)N1CCCC(c2ccc(Cl)cc2)C1 (single isomer, unassigned; (-)) [(−)-1a]
- IC50 (TYK2_C838): 45000 nM
- IC50 ([1]; read-out: IC50, IFNα-stimulated STAT1 phosphorylation (HTRF)): 1400 nM
- IC50 (JAK1_C817; read-out: target engagement value (TE50), JAK1_C817, 1 h compound treatment of human PBMC or Jurkat cell proteome): 2100 nM

- change of TE50 with preincubation time (JAK1_C817; Jurkat T-cell lysate, 10, 30 and 60 minutes): time-dependent decreases
- potency compared with the corresponding diastereomers (5c and 5d) (JAK1_C817; TE50 and pSTAT pIC50): substantially more potent
Compound: CS(=O)(=O)N1CC[C@@H](C#CC(=O)N2CCC[C@H](c3ccc(Cl)c(Cl)c3)C2)C1 [5b]

Compound: COc1ccc2c(c1)CCCN2C(=O)CCl [KB02]
- engagement of TYK2 C838 (TYK2 (C838)): substantially engaged
- engagement of JAK1 C817 (JAK1 (C817)): substantially engaged

Compound: C=CC(=O)N(c1ccccc1)c1ccc(Br)cc1 [KB05]
- engagement of TYK2 C838 (TYK2 (C838)): substantially engaged
- engagement of JAK1 C817 (JAK1 (C817)): substantially engaged

- probe labeling of C838A-TYK2 [2]: but not a C838A-TYK2 mutant
- probe labeling of WT-TYK2 [3]: reacted
Compound: C#CCCS(=O)(=O)N1CCC(C#CC(=O)N2CCCC(c3ccc(Cl)c(Cl)c3)C2)C1 (stereo not drawn) [alkyne probe 6]
- probe labeling of WT- and C810A-JAK1 [4]: reacted

Compound: CC#CC(=O)N1CCCC(c2ccc(Cl)cc2)C1 (stereo not drawn) [compound 1]
- IC50, IFNα-stimulated STAT1 phosphorylation (HTRF) [1]: ~two-fold less active
- target engagement value (TE50), JAK1_C817 (JAK1_C817; 1 h compound treatment of human PBMC or Jurkat cell proteome): ~two-fold less active

- AUC(0-t) ([13]; iv, 1 mg/kg): 149 ng·h/mL
- Cmax ([13]; iv, 1 mg/kg): 1610 ng/mL
- clearance ([13]; iv, 1 mg/kg): 112 mL/min/kg
- half-life ([13]; iv, 1 mg/kg): 9.18 min
- AUC(0-t) ([13]; sc, 25 mg/kg): 2930 ng·h/mL
- Cmax ([13]; sc, 25 mg/kg): 3380 ng/mL
- bioavailability ([13]; sc, 25 mg/kg): 78.3%
- half-life ([13]; sc, 25 mg/kg): 21.6 min
- engagement of JAK1_C816 in spleen (JAK1_C816): 75%
Compound: CS(=O)(=O)N1CCC(C#CC(=O)N2CCCC(c3ccc(Cl)c(Cl)c3)C2)C1 (stereo not drawn) [compound 5]
- IFNα-stimulated STAT1 phosphorylation vs vehicle-treated mice [5]: substantial impairments
- effect on IL-6-pSTAT3 [6]: potently inhibited
- effect on GM-CSF stimulated STAT5 phosphorylation [7]: sparing
- effect on IFNα-pSTAT1 [8]: potently inhibited
- effect on IL-2-dependent STAT5 phosphorylation [9]: inhibited
- effect on GM-CSF-STAT5 signaling (GM-CSF-STAT5 signaling [10]): sparing
- effect on IFNα-dependent STAT1 phosphorylation [11]: inhibited
- effect on IL-12-STAT4 signaling (IL-12-STAT4 signaling): sparing
- GM-CSF-STAT5 signaling vs vehicle-treated mice (GM-CSF-STAT5 signaling [12]): unaffected
- effect on IL-2-pSTAT5 [14]: potently inhibited
- effect on IL-12-STAT4 signaling [15]: sparing
- IL-6-STAT3 signaling vs vehicle-treated mice (IL-6-STAT3 signaling): unaffected
- IL-2-dependent STAT5 phosphorylation vs vehicle-treated mice [16]: not substantially altered

Compound: C[C@@H]1CCN(C(=O)CC#N)C[C@@H]1N(C)c1ncnc2[nH]ccc12 [tofacitinib, reference compound]
- early-stage activation marker CD69 [17]: Neither compound affected
- effect on IL-6-stimulated STAT3 phosphorylation [18]: suppressed
- effect on IL-6-pSTAT3 [6]: blocked
- effect on IFNα-pSTAT1 [8]: blocked
- effect on IL-2-pSTAT5 [14]: blocked
- effect on IFNγ-stimulated STAT1 phosphorylation [19]: completely inhibited
- effect on IFNα-stimulated pSTAT1 [20]: equivalently blocked
- T-cell viability (primary human T cells): Neither compound affected

Compound: CC[C@@H]1CN(C(=O)NCC(F)(F)F)C[C@@H]1c1cnc2cnc3[nH]ccc3n12 [upadacitinib, reference compound]
- effect on IL-6-stimulated STAT3 phosphorylation [18]: suppressed
- effect on IFNγ-stimulated STAT1 phosphorylation [19]: completely inhibited

Compound: deucravacitinib [BMS-986165, reference compound]
- effect on IL-6-stimulated STAT3 phosphorylation [18]: suppressed
- effect on GM-CSF stimulated STAT5 phosphorylation [7]: inactive
- effect on IFNα-induced STAT1 phosphorylation ([21]; C838A-TYK2 expressing 22Rv1 cells): blocked
- effect on IFNα-induced STAT1 phosphorylation ([21]; WT-TYK2 expressing 22Rv1 cells): blocked
- effect on IL-12-STAT4 signaling [15]: inhibited
- effect on IFNγ-stimulated STAT1 phosphorylation [19]: Neither VVD-118313 nor the TYK2 inhibitor BMS-986165 altered
- effect on trans-phosphorylation of inactive JAK1-HA variants [22]: blocked JAK1 trans-phosphorylation in a C817-independent manner
- effect on JAK1 phosphorylation [23]: suppressed

Reference: PMC7614775 (Nature chemical biology, 2022)
